In the supplement of paper PMC11208160:

assay: recombinant barcode read abundance after kanamycin selection (control-corrected) (log10(CPM+1)); higher = more efficient recombination; sequences stand for … in AGTGCAGAGAAAATCGGCCAGTTTTCTCTGCCTGCAGTCCGCATGCCGT…AGATTTATGCAGCGGACTGCCTTTCTCCCAAAGTGATAAACCGGACAGTATCATGGACCGGTTTTCCCGGTAATCCGTATTTGCAAGGTTGGTTTCACT; site = the 11-nt target
Method in brief: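 A promoter, a target, a barcode and the first 104 bridge RNA bases under J23119 made up each oligo. Oligos were Gibson-cloned into a vector bearing the other 73 bp and a T7-inducible recombinase, then co-electroporated into E. coli with a donor plasmid and plated in duplicate on chloramphenicol/ampicillin LB agar (control) or chloramphenicol/ampicillin/kanamycin with 0.1 mM IPTG. Recombination efficiency is the averaged, control-corrected counts per million of recombinant-junction barcodes. Reported values are log10(CPM+1).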
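Also: IS621 recombinase and bridge RNA in Escherichia coli cells.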

Row | Sequence | recombinant barcode read abundance (log10)
1 | CGCTGATCTTGGGTTCTAACCTGTTGCCT (site AGCTGATCTAG) | 0.0494
2 | CGCTGATCTTGGGTTCTAACCTGTTGCCT (site CGCTGATCTAG) | 0.0169
3 | CGCTGATCTTGGGTTCTAACCTGTTGCCT (site GGCTGATCTAG) | 0.14
4 | CGCTGATCTTGGGTTCTAACCTGTTGCCT (site TGCTGATCTAG) | 0.0802
5 | CGCTGCCCTTGGGTTCTAACCTGTTGCTT (site CGCTGACCTAA) | 0.102
6 | CGCTGCCCTTGGGTTCTAACCTGTTGCTT (site CGCTGCCCTAA) | 0.113
7 | CGCTGCCCTTGGGTTCTAACCTGTTGCTT (site CGCTGGCCTAA) | 0.0609
8 | CGCTGCCCTTGGGTTCTAACCTGTTGCTT (site CGCTGTCCTAA) | 0.512
9 | CGCTGGACTTGGGTTCTAACCTGTTGCCT (site CGCTAGACTAG) | 0.0452
10 | CGCTGGACTTGGGTTCTAACCTGTTGCCT (site CGCTCGACTAG) | 0.0114
11 | CGCTGGACTTGGGTTCTAACCTGTTGCCT (site CGCTGGACTAG) | 0.158
12 | CGCTGGACTTGGGTTCTAACCTGTTGCCT (site CGCTTGACTAG) | 0.0799
13 | CGCTTGTCTTGGGTTCTAACCTGTTGCCT (site CGCTAGTCTAG) | 0.0576
14 | CGCTTGTCTTGGGTTCTAACCTGTTGCCT (site CGCTCGTCTAG) | 0.00757
15 | CGCTTGTCTTGGGTTCTAACCTGTTGCCT (site CGCTGGTCTAG) | 0.117
16 | CGCTTGTCTTGGGTTCTAACCTGTTGCCT (site CGCTTGTCTAG) | 0.15
17 | CGGAAGTCTTGGGTTCTAACCTGTTGCCT (site CGGAAGACTAG) | 0.0548
18 | CGGAAGTCTTGGGTTCTAACCTGTTGCCT (site CGGAAGCCTAG) | 0.452
19 | CGGAAGTCTTGGGTTCTAACCTGTTGCCT (site CGGAAGGCTAG) | 0.247
20 | CGGAAGTCTTGGGTTCTAACCTGTTGCCT (site CGGAAGTCTAG) | 1.7
21 | CGGAATCCTTGGGTTCTAACCTGTTGCAT (site CGGAATCCTAA) | 0.297
22 | CGGAATCCTTGGGTTCTAACCTGTTGCAT (site CGGAATCCTAC) | 0.841

Row | Sequence | recombinant barcode read abundance (log10)
23 | CGGAATCCTTGGGTTCTAACCTGTTGCAT (site CGGAATCCTAG) | 0.29
24 | CGGAATCCTTGGGTTCTAACCTGTTGCAT (site CGGAATCCTAT) | 1.15
25 | CGGAATCCTTGGGTTCTAACCTGTTGCTT (site CGGAATCCTAA) | 0.9
26 | CGGAATCCTTGGGTTCTAACCTGTTGCTT (site CGGAATCCTAC) | 0.0576
27 | CGGAATCCTTGGGTTCTAACCTGTTGCTT (site CGGAATCCTAG) | 0.316
28 | CGGAATCCTTGGGTTCTAACCTGTTGCTT (site CGGAATCCTAT) | 0.707
29 | CGGAGCCCTTGGGTTCTAACCTGTTGCAT (site CGCAGCCCTAT) | 0.0297
30 | CGGAGCCCTTGGGTTCTAACCTGTTGCAT (site CGGAGCCCTAT) | 1.63
31 | CGGAGCTCTTGGGTTCTAACCTGTTGCCT (site CGAAGCTCTAG) | 0.58
32 | CGGAGCTCTTGGGTTCTAACCTGTTGCCT (site CGCAGCTCTAG) | 0.293
33 | CGGAGCTCTTGGGTTCTAACCTGTTGCCT (site CGGAGCTCTAG) | 1.94
34 | CGGAGCTCTTGGGTTCTAACCTGTTGCCT (site CGTAGCTCTAG) | 0.0387
35 | CGGATAGCTTGGGTTCTAACCTGTTGCCT (site CGGATAGCTAG) | 0.885
36 | CGGATAGCTTGGGTTCTAACCTGTTGCCT (site CGGATCGCTAG) | 0.0282
37 | CGGATAGCTTGGGTTCTAACCTGTTGCCT (site CGGATGGCTAG) | 0.153
38 | CGGATAGCTTGGGTTCTAACCTGTTGCCT (site CGGATTGCTAG) | 0.553
39 | CGGATGGCTTGGGTTCTAACCTGTTGCCT (site CGGATAGCTAG) | 0.031
40 | CGGATGGCTTGGGTTCTAACCTGTTGCCT (site CGGATCGCTAG) | 0.0869
41 | CGGATGGCTTGGGTTCTAACCTGTTGCCT (site CGGATGGCTAG) | 0.64
42 | CGGATGGCTTGGGTTCTAACCTGTTGCCT (site CGGATTGCTAG) | 0.0444
43 | CGGATTGCTTGGGTTCTAACCTGTTGCCT (site CGGATAGCTAG) | 0
